One series has as its system HCV genotype 1b replicon. As to the kind of experiment: HCV Replicon Assay. To be noted: Zluc (Huh-7-derived) cells, HCV genotype 1b replicon, luciferase reporter, 72 hours, read-out: HCV Replicon EC50. Type of series: cell-based. An outline of the steps:
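Zluc Huh-7 cells with HCV genotype 1b replicon and luciferase reporter treated with 5-fold dilutions (100 μM to 0.0000512 μM final) in duplicate, or at 1 and 10 μM. Luminescence read with ONE-glo; EC50 from dose-response fits, or % inhibition at the fixed concentrations.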
On the technique in general: A replicon is a self-replicating genome or part of one, used to study replication in cells.

Series [1] can be described thus: Stability in fresh human whole blood. Type of series: in vitro ADME. The following applies: 0.5 μM, percent unchanged test compound. The method, then:
Stability in Fresh Whole Blood: Stability of test compounds were determined in fresh human whole blood with K2EDTA as the anticoagulant (stored refrigerated at 2-8° C. and used within 7 days of receipt). The experiment was conducted with three replicates for each time point. Whole blood, pre-incubated at 37° C. for 10-15 minutes, was fortified with a solution of test compound for a final concentration of 0.5 μM and mixed for 30 sec. At intervals (0, 0.5, 1 and 2 hr), three 50-μL aliquots were combined with 200 μL (each) of an ice-cold solution of the internal standard (carbutamide 500 ng/mL in acetonitrile). The samples were vortexed for 30 sec and then centrifuged at 16,100 g for 5 min. The supernatant was analyzed by LC-MS/MS. The MS peak area ratio of the test compound versus the internal standard was calculated and percent unchanged test compound was calculated for each time point using this ratio.

Series [2] can be described thus: Stability in human liver microsomes. To be noted: 10 μM, 1.0 mg/mL protein, NADPH, 60 min; percent unchanged. It counts as in vitro ADME. The method, then: (§1) Stability in Liver and Intestinal Subcellular Fractions: Stability of test compounds were determined in subcellular fractions (microsomes and S9) of human liver and intestine in duplicate for each matrix. Pooled liver and intestinal microsomal, intestinal and liver S9 proteins (1.0 mg/mL), suspended in incubation buffer (100 mM potassium phosphate, pH 7.4, 5 mM MgCl2, and 0.1 mM EDTA), were preincubated for 5 min at 37° C. with 10 μM of a test compound from a 10 mM stock solution in DMSO (final DMSO concentration was 0.1%); the reaction was initiated by the addition of NADPH (3 mM final concentration). At specific times (0 and 60 min), 0.1 mL samples were taken and the reaction terminated by the addition of 4 volumes of stop solution (acetonitrile with 500 ng/mL carbutamide as an internal standard). The samples were vortexed for 30 sec and then centrifuged at 16,000 g for 10 min. 100 μL of supernatants were transferred to 96 deep-well plates preloaded with 100 μL distilled water and analyzed after mixing by LC-MS/MS. The MS peak area ratio of the test compound versus the internal standard was calculated and percent unchanged test compound over 60 minutes was calculated using this ratio.

Series [3] in a line: Stability in human intestinal microsomes. The following applies: 10 μM, 1.0 mg/mL protein, NADPH, 60 min; percent unchanged. Type of series: in vitro ADME. The protocol: as §1
The nature of series [4]: Stability in human liver S9 fraction. Type of series: in vitro ADME. The following applies: 10 μM, 1.0 mg/mL protein, NADPH, 60 min; percent unchanged. The method, then:
as §1

The next series deals with fresh human hepatocytes. As to the kind of experiment: Release of active metabolite in fresh human hepatocytes. It counts as in vitro ADME. The following applies: 10 μM. The method, then:
(§2) Assay for the Release of Active Metabolite in Primary Hepatocytes: Plates of fresh human and mouse hepatocytes were obtained on ice. The medium was removed and replaced with hepatocyte culture medium (William's E supplemented with penicillin-streptomycin, 1% L-glutamine, 1% insulin-transferrin-selenium and 0.1 μM Dexamethasone (Invitrogen) or with Invitro GRO HI medium complemented with Torpedo antibiotics (Celsis)). Cells were left overnight in an incubator at 37° C. to acclimatize to culture and the medium.
(§3) Hepatocyte incubations were conducted at a final volume of 0.5 mL hepatocyte culture medium/well (0.8 million cells/well for human and 0.5 million cells/well for mouse; 12 well plate no overlay, collagen coat). Culture medium from overnight incubation of cells was removed and replaced with fresh medium, pre-warmed to 37° C., containing 10 μM of test compound from a stock solution in DMSO (final DMSO concentration was 0.1%). At each specific time point, incubation medium was removed and cell monolayers were carefully washed two times with ice-cold PBS. Following the last wash, all PBS was carefully removed and 1.0 mL of extraction solution (ice-cold 70% methanol/30% water) added. Cells were scraped off and suspended in the extraction solution, transferred to 2 mL polypropylene microfuge tubes and intracellular contents extracted overnight at −20° C.
(§4) After the overnight treatment the cellular extracts were prepared by centrifugation at 16,000×g for 10 min to remove cellular debris. The remaining sample was then dried using a refrigerated centrivap concentrator. Dry extracts were reconstituted in 1000 μL of HPLC-grade water and centrifuged at 16,000×g for 10 min. Aliquots (100 μL each) of the supernatant were transferred into a 96 well plate and internal standard (4 ng/mL final concentration) was added as the internal standard (IS) for LC-MS/MS analysis.
(§5) The incubation time points were 6, 24 and 48 hours for human hepatocytes and 1, 4, 8, 12 and 24 hours for mouse hepatocytes.

The subject of another series is mouse hepatocytes. As to the kind of experiment: Release of active metabolite in mouse hepatocytes. It counts as in vitro ADME. To be noted: 10 μM. The protocol: as §2, §3, §4, §5

Read-outs that look alike come from different tables or passages of the source.

Broadly, the EC50 is the concentration at which the effect is half-maximal. On to `CCOc1nc(N)nc2c1ncn2[C@@H]1O[C@@H]2COP(=O)(N[C@@H](C)C(=O)OC(C)C)O[C@H]2[C@@]1(C)F` (single isomer, unassigned) [Compound 1 Diastereomer 1], for which, in the series on HCV genotype 1b replicon (Hepatitis C virus, 72 h), the concentration giving a half-maximal response (EC50) was in the range of 250 to 1000 nM. Also, the “Stability WB_Human (37° C.; 2 hr)” value in series [1] came to 87%. Besides, in series [2], the “Stability HLM (1 hr)” value is recorded as 11%. In addition, the “Stability HIM (1 hr)” value in series [3] was determined as 70%. Besides, the “Stability HLS9 (1 hr)” value in series [4] was found to be 51%. Moreover, in the series on fresh human hepatocytes, the “FHH TP AUC (pmol · hr/mill cells)” value was determined as 9842 pmol · hr/mill cells and the “FHH TP Cmax (pmol/mill cells)” value stood at 687 pmol/mill cells. Moreover, the “FHH TP (24 hr)” value in the series on fresh human hepatocytes (24 hr) is on record as “BLD^a”. Besides, in the series with mouse hepatocytes, the “MsH AUC (pmol · hr/mill cells)” value is reported as 4700 pmol · hr/mill cells and the “MsH Cmax (pmol/mill cells)” value is reported as 2296 pmol/mill cells.
With `CCOc1nc(N)nc2c1ncn2[C@@H]1O[C@@H]2COP(=O)(N[C@@H](C)C(=O)OC(C)C)O[C@H]2[C@@]1(C)F` (single isomer, unassigned) [Compound 1 Diastereomer 2], the EC50 in the series on HCV genotype 1b replicon was less than 250 nM. The “Stability WB_Human (37° C.; 2 hr)” value in series [1] is on record as 67%. The “Stability HLM (1 hr)” value in series [2] amounted to 52%. Moreover, the “Stability HIM (1 hr)” value in series [3] was determined as 98%. Also, in series [4], the “Stability HLS9 (1 hr)” value was 66%. In addition, in the series on fresh human hepatocytes, the “FHH TP AUC (pmol · hr/mill cells)” value amounted to 5774 pmol · hr/mill cells and the “FHH TP Cmax (pmol/mill cells)” value came out at 309 pmol/mill cells. Also, in the series with fresh human hepatocytes (48 hr), the “FHH TP (48 hr)” value is reported as “BLD^a”. Besides, in the series on mouse hepatocytes, the “MsH AUC (pmol · hr/mill cells)” value came out at 1451 pmol · hr/mill cells and the “MsH Cmax (pmol/mill cells)” value is on record as 884 pmol/mill cells.

These data come from US9109001B2, “3′,5′-cyclic phosphoramidate prodrugs for HCV infection” (priority 2012, dated 2015).
